From patent US20240207427A1, “SELECTIVE DRUG RELEASE FROM INTERNALIZED CONJUGATES OF BIOLOGICALLY ACTIVE COMPOUNDS” (priority 2021, published 2024)
Like-named read-outs stand apart in the source and are kept apart here.

Assays:
Format in all cases: cell-based
[1] = test system: renal carcinoma cells (786-O); experiment: In vitro potency (CellTiter-Glo, 96 h), 786-O; settings: Homo sapiens, 786-0, 96 h, CPT free drugs, renal carcinoma cells 786-O, 96 h, CellTiter-Glo
Method: (§1) In vitro potency was assessed on multiple cancer cell lines. All cell lines were authenticated by STR profiling at IDEXX Bioresearch and cultured for no more than 2 months after resuscitation. Cells cultured in log-phase growth were seeded for 24 hours in 96-well plates containing […] RPMI 1640 supplemented with 20% FBS. Serial dilutions of antibody-drug conjugates in cell culture media were prepared at 4× working concentrations, and 50 μL of each dilution was added to the 96-well plates. Following addition of test articles, cells were incubated with test articles for 4 days at 37 0° C. After 96 hours, growth inhibition was assessed by CellTiterGlo® (Promega, Madison, WI) and luminescence was measured on a plate reader.
(§2) In Table 7, IC50 values for ADCs are given in ng/mL. Cell viability was determined by CellTiter-Glo staining after 96 h exposure to ADC. ND=Not Determined. Ag2 is an antibody targeting a ubiquitous and readily internalizable antigen. The cancer cell lines tested are renal carcinoma cells (786-0), melanoma cells (A2058), pancreatic cancer cells (BxPC3), non-small-cell lung cancer cells (Calu1), anaplastic large cell lymphoma cells (DEL, DELBVR, Karpas299), Hodgkin's lymphoma cells (L540cy), (Ls174T), breast cancer cells (MDA-MB-231), acute myeloid leukemia cells (MOLM-13), and B-lymphocyte cancer cells (SU-DHL4).
(§3) In vitro potency was assessed on multiple cancer cell lines. All cell lines were authenticated by STR profiling at IDEXX Bioresearch and cultured for no more than 2 months after resuscitation. Cells cultured in log-phase growth were seeded for 24 hours in 96-well plates containing […] RPMI 1640 supplemented with 20% FBS. Following addition of test articles, cells were incubated with test articles for 4 days at 37 0° C. After 96 hours, growth inhibition was assessed by CellTiterGlo® (Promega, Madison, WI) and luminescence was measured on a plate reader.
(§4) Cell viability was determined by CellTiter-Glo staining after 96 h exposure to the compound. ND=Not Determined. The cancer cell lines tested are renal carcinoma cells (786-0), melanoma cells (A2058), pancreatic cancer cells (BxPC3), non-small-cell lung cancer cells (Calu1), anaplastic large cell lymphoma cells (DEL, DELBVR, Karpas299), Hodgkin's lymphoma cells (L540cy), (Ls 174T), breast cancer cells (MDA-MB-231), acute myeloid leukemia cells (MOLM-13), B-lymphocyte cancer cells (SU-DHL4), multiple myeloma cells (MM.1R), (U266), and melanoma cells (SK-MEL-5).
as §1, with “37°” for “37 0°”
(§5) In the following Tables IC50 values for ADCs and CPT free drugs are given in ng/mL and nmol/L concentrations. Cell viability was determined by CellTiter-Glo staining after 96 h exposure to ADC or CPT free drug.
(§6) Cell viability was determined by CellTiter-Glo staining after 96 h exposure to ADC. ND=Not Determined.

[2] = test system: pancreatic cancer cells (BxPC3); experiment: In vitro potency (CellTiter-Glo, 96 h), BxPC3; settings: Homo sapiens, BXPC-3, 96 h, CPT free drugs, pancreatic cancer cells BxPC3, 96 h, CellTiter-Glo
Method: as §1, §2, §3, §4
as §1, with “37°” for “37 0°”
as §5, §6

[3] = test system: anaplastic large cell lymphoma cells (DEL); experiment: In vitro potency (CellTiter-Glo, 96 h), DEL
Method: as §1, §2, §3, §4
as §1, with “37°” for “37 0°”
as §5, §6

[4] = test system: anaplastic large cell lymphoma cells (DELBVR); experiment: In vitro potency (CellTiter-Glo, 96 h), DELBVR
Method: as §1, §2, §3, §4
as §1, with “37°” for “37 0°”
as §5, §6

[5] = test system: anaplastic large cell lymphoma cells (Karpas299); experiment: In vitro potency (CellTiter-Glo, 96 h), Karpas299; settings: Homo sapiens, KARPAS-299, 96 h, CPT free drugs, anaplastic large cell lymphoma cells Karpas299, 96 h, CellTiter-Glo
Method: as §1, §2, §3, §4
as §1, with “37°” for “37 0°”
as §5, §6

[6] = test system: Hodgkin's lymphoma cells (L540cy); experiment: In vitro potency (CellTiter-Glo, 96 h), L540cy
Method: as §1, §2, §3, §4
as §1, with “37°” for “37 0°”
as §5, §6

Ls174T cells = experiment: In vitro potency (CellTiter-Glo, 96 h), Ls174T; settings: Homo sapiens, LS174T, 96 h, CPT free drugs, Ls174T cells, 96 h, CellTiter-Glo
Method: as §1, §2, §3, §4
as §1, with “37°” for “37 0°”
as §5, §6

[7] = test system: breast cancer cells (MDA-MB-231); experiment: In vitro potency (CellTiter-Glo, 96 h), MDA-MB-231; settings: Homo sapiens, MDA-MB-231, 96 h, CPT free drugs, breast cancer cells MDA-MB-231, 96 h, CellTiter-Glo
Method: as §1, §2, §3, §4
as §1, with “37°” for “37 0°”
as §5, §6

[8] = test system: acute myeloid leukemia cells (MOLM-13); experiment: In vitro potency (CellTiter-Glo, 96 h), MOLM-13; settings: Homo sapiens, MOLM-13, 96 h, CPT free drugs, acute myeloid leukemia cells MOLM-13, 96 h, CellTiter-Glo
Method: as §1, §2, §3, §4
as §1, with “37°” for “37 0°”
as §5, §6

[9] = test system: B-lymphocyte cancer cells (SU-DHL4); experiment: In vitro potency (CellTiter-Glo, 96 h), SU-DHL-4; settings: Homo sapiens, SU-DHL-4, 96 h, CPT free drugs, B-lymphocyte cancer cells SU-DHL4, 96 h, CellTiter-Glo
Method: as §1, §2, §3, §4
as §1, with “37°” for “37 0°”
as §5, §6

[10] = read-out: DEL IC50, Table 29, CPT free drugs, anaplastic large cell lymphoma cells DEL, CellTiter-Glo
[11] = read-out: DELBVR IC50, Table 29, CPT free drugs, anaplastic large cell lymphoma cells DELBVR, CellTiter-Glo
[12] = read-out: Karpas299 IC50, Table 29
[13] = read-out: L540cy IC50, Table 29, CPT free drugs, Hodgkin's lymphoma cells L540cy, CellTiter-Glo
[14] = read-out: Ls174T IC50, Table 29
[15] = read-out: MDAMB231 IC50, Table 29
[16] = read-out: MOLM-13 IC50, Table 29
[17] = read-out: SU-DHL-4 IC50, Table 29
[18] = read-out: DEL IC50, Table 28, CPT free drugs, anaplastic large cell lymphoma cells DEL, CellTiter-Glo
[19] = read-out: DELBVR IC50, Table 28, CPT free drugs, anaplastic large cell lymphoma cells DELBVR, CellTiter-Glo
[20] = read-out: Karpas299 IC50, Table 28
[21] = read-out: L540cy IC50, Table 28, CPT free drugs, Hodgkin's lymphoma cells L540cy, CellTiter-Glo
[22] = read-out: Ls174T IC50, Table 28
[23] = read-out: MDAMB231 IC50, Table 28
[24] = read-out: MOLM-13 IC50, Table 28
[25] = read-out: SU-DHL-4 IC50, Table 28

SMILES	IC50 ([1]; read-out: 786-O IC50, Table 29) [µM]	IC50 ([2]; read-out: BxPC3 IC50, Table 29) [µM]	IC50 [3, 10] [µM]	IC50 [4, 11] [µM]	IC50 [5, 12] [µM]	IC50 [6, 13] [µM]	IC50 (Ls174T cells; [14]) [µM]	IC50 [7, 15] [µM]	IC50 [8, 16] [µM]	IC50 [9, 17] [µM]	IC50 ([1]; read-out: 786-O IC50, Table 28) [µM]	IC50 ([2]; read-out: BxPC3 IC50, Table 28) [µM]	IC50 [3, 18] [µM]	IC50 [4, 19] [µM]	IC50 [5, 20] [µM]	IC50 [6, 21] [µM]	IC50 (Ls174T cells; [22]) [µM]	IC50 [7, 23] [µM]	IC50 [8, 24] [µM]	IC50 [9, 25] [µM]
CC[C@@]1(O)C(=O)OCc2c1cc1n(c2=O)Cc2c-1nc1cc3c(cc1c2CNC1CCN(C)CC1)OCO3 [Compound 7w]	0.015	0.013	0.002	0.002	0.008	0.006	0.016	0.026	0.026	0.006	–	–	–	–	–	–	–	–	–	–
CC[C@@]1(O)C(=O)OCc2c1cc1n(c2=O)Cc2c-1nc1cc3c(cc1c2CNC[C@@H](O)CN1CCCCC1)OCO3 [Compound 7z]	0.123	0.127	0.017	0.016	0.15	0.048	0.079	0.306	0.143	0.039	–	–	–	–	–	–	–	–	–	–
CC[C@@]1(O)C(=O)OCc2c1cc1n(c2=O)Cc2c-1nc1cc3c(cc1c2CNCCN1CCNCC1)OCO3 [Compound 8b]	0.102	0.051	0.008	0.013	0.062	0.056	0.111	0.26	0.091	0.017	–	–	–	–	–	–	–	–	–	–
CC[C@@]1(O)C(=O)OCc2c1cc1n(c2=O)Cc2c-1nc1cc3c(cc1c2CN1CCN(CCN)CC1)OCO3 [Compound 8c]	0.027	0.014	0.003	0.004	0.028	0.014	0.032	0.057	0.069	0.007	–	–	–	–	–	–	–	–	–	–
CC[C@@]1(O)C(=O)OCc2c1cc1n(c2=O)Cc2c-1nc1cc3c(cc1c2CNCCCN1CCNCC1)OCO3 [Compound 8d]	0.015	0.014	0.002	0.002	0.009	0.006	0.019	0.025	0.037	0.006	–	–	–	–	–	–	–	–	–	–
CC[C@@]1(O)C(=O)OCc2c1cc1n(c2=O)Cc2c-1nc1cc3c(cc1c2CNC1CCNCC1)OCO3 [Compound 8e]	0.104	0.062	0.007	0.01	0.072	0.036	0.109	0.102	0.089	0.025	–	–	–	–	–	–	–	–	–	–
CC[C@@]1(O)C(=O)OCc2c1cc1n(c2=O)Cc2c-1nc1cc3c(cc1c2CN1CCC(N)CC1)OCO3 [Compound 8f]	0.267	0.166	0.014	0.03	0.11	0.084	0.236	0.207	0.032	0.032	–	–	–	–	–	–	–	–	–	–
CC[C@@]1(O)C(=O)OCc2c1cc1n(c2=O)Cc2c-1nc1cc3c(cc1c2CNC(C)=O)CCO3 [Compound 12]	–	–	–	–	–	–	–	–	–	–	0.013	0.012	0.001	0.001	0.024	0.005	0.019	0.027	0.005	0.001
CC[C@@]1(O)C(=O)OCc2c1cc1n(c2=O)Cc2c-1nc1cc(F)c(C)c(Cl)c1c2CNC(C)=O [Compound 12a]	–	–	–	–	–	–	–	–	–	–	0.001	0.002	0.0002	0.0002	0.001	0.0004	0.007	0.002	0.001	0.0004
CC[C@@]1(O)C(=O)OCc2c1cc1n(c2=O)Cc2c-1nc1cc3c(cc1c2CNC(=O)CN)CCO3 [Compound 13]	–	–	–	–	–	–	–	–	–	–	0.139	0.094	0.008	0.021	0.126	0.045	0.195	0.177	0.088	0.018
